“And” between values parts separate entries of the source, which are not always exact repeats. Equal entries are not always repeated. After the bases stand the sugars from the 5' end (letter, count) and the backbone: PS all phosphorothioate, else s phosphorothioate and o phosphodiester by linkage. Methylation of C is not given here. e = 2'-O-(2-methoxyethyl) (MOE); k = constrained ethyl (cEt); d = 2'-deoxy (DNA)

One data set concerns the target IRF4. The following applies: ASO, MM.1R, 0.0625 µM.
Regarding “GGTTGGCTGGTCTTTG (sugars k2 d9 e3 k2, PS)”, the target mRNA inhibition turned out to be 44%.

The data set is the same for the next values; noted with them: ASO, MM.1R, 0.25 µM.
Regarding “GGTTGGCTGGTCTTTG (sugars k2 d9 e3 k2, PS)”, the target mRNA inhibition is 52%.

The data set is the same for the next values; noted with them: ASO, MM.1R, 1 µM.
Regarding ACTTGTGACCCACATA (sugars k3 d10 k3, PS), the target mRNA inhibition is -4%.

Turning to ATTCTTGAATAGAGGA (sugars k3 d10 k3, PS), the target mRNA inhibition is 16%.

Take “CACATCAATGTTTTAG (sugars k2 d9 e3 k2, PS)”: the target mRNA inhibition is 12% and 11%.

Take GCTCCCGACACGCGCC (sugars k3 d10 k3, PS): the target mRNA inhibition is 3% and 19%.

In the case of CGCACGGACGAACGCG (sugars k3 d10 k3, PS), the target mRNA inhibition is -17%.

As to TGAGCACTCTTACTCC (sugars k3 d10 k3, PS), the target mRNA inhibition was -6%.

As to GACATAAAGGACCCCG (sugars k3 d10 k3, PS), the target mRNA inhibition is 8%.

With CACTATTCGAGAGAAA (sugars k3 d10 k3, PS), the target mRNA inhibition turned out to be 30%.

For “GGCACATCAATGTTTT (sugars kkdddddddddkekek, PS)”, the target mRNA inhibition was 23% and 19%.

Regarding “ACACTTTTAGAGAGGA (sugars kkkdddddddddkeke, PS)”, the target mRNA inhibition was determined as 37%.

As for AGATCTGTGGTAATCT (sugars k3 d10 k3, PS), the target mRNA inhibition is -3%.

For CTACTCTTCAGGCACC (sugars k3 d10 k3, PS), the target mRNA inhibition is 18%.

On to ATTCCGCGCGCAGAGC (sugars k3 d10 k3, PS), for which the target mRNA inhibition is -21%.

As for “CCTCAGTTTGTGAAGC (sugars kdddddddddkekeke, PS)”, the target mRNA inhibition amounted to 11%.

Regarding TGCGGAGGTTCCTTGA (sugars k3 d10 k3, PS), the target mRNA inhibition was 12%.

Take “TGTAGTATGAGAAACG (sugars kkkddddddddkekek, PS)”: the target mRNA inhibition was found to be 23%.

Consider GAACACACCACTATTC (sugars k3 d10 k3, PS), for which the target mRNA inhibition is -20%.

ATCCACTGGCACCAAG (sugars k3 d10 k3, PS): the target mRNA inhibition was determined as 5%.

Turning to AAAGAATGGCGCATAG (sugars k3 d10 k3, PS), the target mRNA inhibition is 10%.

Regarding ACCTACACAGGCTAAT (sugars k3 d10 k3, PS), the target mRNA inhibition was -4%.

With “ATGTGTATTACTCTTA (sugars kkdddddddddkdkdk, PS)”, the target mRNA inhibition is 44% and 32%.

In the case of “GATGTGATAGCTGAGC (sugars kkdddddddddkekek, PS)”, the target mRNA inhibition was 31%.

Regarding “GGTTGGCTGGTCTTTG (sugars k2 d9 e3 k2, PS)”, the target mRNA inhibition is 69% and 65%.

Take “ACGGAAGTTTACACTG (sugars kkkddddddddkekek, PS)”: the target mRNA inhibition was found to be 14%.

On to AAGCGAGTCAGACAGT (sugars k3 d10 k3, PS), for which the target mRNA inhibition was -22%.

Turning to AATGGAGATACTTGTA (sugars k3 d10 k3, PS), the target mRNA inhibition turned out to be 26%.

In the case of “TGTTACCGATGCTTCA (sugars kkdddddddddkekek, PS)”, the target mRNA inhibition is 28% and 21%.

On to TGTATCATGCATACCA (sugars k3 d10 k3, PS), for which the target mRNA inhibition turned out to be 3%.

With ACTACCTGCAGCCAAG (sugars k3 d10 k3, PS), the target mRNA inhibition was 4%.

Regarding “TGTAGTATGAGAAACG (sugars kdddddddddkekeke, PS)”, the target mRNA inhibition was determined as 14%.

Regarding “ACTTTTAGAGAGGAGA (sugars kkkddddddddkekek, PS)”, the target mRNA inhibition was determined as 21%.

GAATGGCGAGTTGGCA (sugars k3 d10 k3, PS): the target mRNA inhibition is 39% and 40%.

For the sequence “TGTGATAGCTGAGCTG (sugars kkdddddddddkekek, PS)”, the target mRNA inhibition came to 17%.

As to “ACCTCAGTTTGTGAAG (sugars kkkddddddddkekek, PS)”, the target mRNA inhibition was -3%.

For “CTTGATAAAGGCTGAA (sugars kkkddddddddkekek, PS)”, the target mRNA inhibition came out at 12%.

Consider “GGCACATCAATGTTTT (sugars kkdddddddddkdkdk, PS)”, for which the target mRNA inhibition is 26% and 16%.

For the sequence GAGGTTGCCGAGATAT (sugars k3 d10 k3, PS), the target mRNA inhibition was 29%.

For “GGGATTATATACTGGT (sugars k2 d9 e3 k2, PS)”, the target mRNA inhibition is 35%.

Still in this data set, the particulars now being: ASO, MM.1R, 4 µM.
For the sequence “GGTTGGCTGGTCTTTG (sugars k2 d9 e3 k2, PS)”, the target mRNA inhibition was 84%.

Staying with this data set, now noted: ASO, SK-MEL-28, 4 µM.
On to TGCAAAATAGTCACTC (sugars k3 d10 k3, PS), for which the target mRNA inhibition amounted to 48%.

GGCAGCACCGTGTGGA (sugars k3 d10 k3, PS): the target mRNA inhibition is 53%.

With TTGCTTTGCAGAGCAA (sugars k3 d10 k3, PS), the target mRNA inhibition worked out at 28%.

ATTGAAATGGAGCATC (sugars k3 d10 k3, PS): the target mRNA inhibition is -1%.

Regarding GACCATGTTACACTTT (sugars k3 d10 k3, PS), the target mRNA inhibition worked out at 50%.

As to CTTGGAGAAGTCCCGT (sugars k3 d10 k3, PS), the target mRNA inhibition amounted to 39%.

For the sequence AGACAGACTTCCAAGA (sugars k3 d10 k3, PS), the target mRNA inhibition amounted to 36%.

Regarding ACTGCTTGAGGTTTTC (sugars k3 d10 k3, PS), the target mRNA inhibition was found to be 58%.

With CACCAAGGTCCAGAGT (sugars k3 d10 k3, PS), the target mRNA inhibition came out at 20%.

For the sequence AAACACCTCAGCTGAC (sugars k3 d10 k3, PS), the target mRNA inhibition amounted to 16%.

For the sequence CAGGTAAGGGCCCCGT (sugars k3 d10 k3, PS), the target mRNA inhibition is 70%.

As to CACCAGGTTAAACAGG (sugars k3 d10 k3, PS), the target mRNA inhibition was -8%.

Take TCAAACTATAATTGGC (sugars k3 d10 k3, PS): the target mRNA inhibition is 74%.

Take AAGATGACTCCATGAG (sugars k3 d10 k3, PS): the target mRNA inhibition was 64%.

On to CGAGCGGTGAAACTGA (sugars k3 d10 k3, PS), for which the target mRNA inhibition was determined as 33%.

In the case of GCAATTAGCTCTTCTA (sugars k3 d10 k3, PS), the target mRNA inhibition was found to be 21%.

In the case of TCCTTTAAACAGTGCC (sugars k3 d10 k3, PS), the target mRNA inhibition amounted to 50%.

Consider TATATATGACGACTTA (sugars k3 d10 k3, PS), for which the target mRNA inhibition is 20%.

For the sequence CTGTAACTGACTAACA (sugars k3 d10 k3, PS), the target mRNA inhibition is 23%.

On to TTCTTATGCATGTTCC (sugars k3 d10 k3, PS), for which the target mRNA inhibition is 65% and 80%.

Take GAGCTTTCTTTGCCTC (sugars k3 d10 k3, PS): the target mRNA inhibition amounted to 13%.

For TGAAACTGAGAGTGCG (sugars k3 d10 k3, PS), the target mRNA inhibition was found to be 19%.

With ACGCAGTGCACCTGTG (sugars k3 d10 k3, PS), the target mRNA inhibition was -7%.

In the case of CATTATCTACCTCAGT (sugars k3 d10 k3, PS), the target mRNA inhibition is 35%.

With GGTCAAAAAGATGCAG (sugars k3 d10 k3, PS), the target mRNA inhibition worked out at 51%.

On to AATAAAGACCTTAACC (sugars k3 d10 k3, PS), for which the target mRNA inhibition is 11%.

As for AAGCAAGTGGAGGTCT (sugars k3 d10 k3, PS), the target mRNA inhibition came to 51%.

For the sequence CCGGGTGTGGCTGATC (sugars k3 d10 k3, PS), the target mRNA inhibition is 16%.

Consider TGGAAACTCCTCTCCA (sugars k3 d10 k3, PS), for which the target mRNA inhibition was found to be 16%.

As to ACTATTAAGAACTTGC (sugars k3 d10 k3, PS), the target mRNA inhibition worked out at 21%.

On to AGCACATGTCAACAGT (sugars k3 d10 k3, PS), for which the target mRNA inhibition was found to be 31%.

TGCCAGTGGTGGCCGC (sugars k3 d10 k3, PS): the target mRNA inhibition was 30%.

Turning to CGCCTTAATGTTCAGC (sugars k3 d10 k3, PS), the target mRNA inhibition is 66%.

Turning to CCTCCTTTAGTGTCGC (sugars k3 d10 k3, PS), the target mRNA inhibition is 65%.

As for CACGCAATGGCAAAAG (sugars k3 d10 k3, PS), the target mRNA inhibition amounted to 19%.

As to ATAAAGACCTTAACCA (sugars k3 d10 k3, PS), the target mRNA inhibition worked out at 27%.

As for GGTGTGTAAGGTCTGA (sugars k3 d10 k3, PS), the target mRNA inhibition came out at 41%.

With CGGTAGAGTGAGATGC (sugars k3 d10 k3, PS), the target mRNA inhibition worked out at 54%.

For TAGTAAATATCCTGTA (sugars k3 d10 k3, PS), the target mRNA inhibition turned out to be 42%.

Consider AGACGAAAACAGCCGC (sugars k3 d10 k3, PS), for which the target mRNA inhibition was determined as 25%.

Consider TCATACCCAATAGTCT (sugars k3 d10 k3, PS), for which the target mRNA inhibition is 52%.

As to CTGTAGTATGAGAAAC (sugars k3 d10 k3, PS), the target mRNA inhibition was found to be 45%.

With ACGCGCGGAGGACCTC (sugars k3 d10 k3, PS), the target mRNA inhibition worked out at 13%.

CGTGAAACAGCAGTTC (sugars k3 d10 k3, PS): the target mRNA inhibition came out at 40%.

Consider TCCAGATGCAGATTCC (sugars k3 d10 k3, PS), for which the target mRNA inhibition was 46%.

Turning to GCCACATTAGCAATTA (sugars k3 d10 k3, PS), the target mRNA inhibition came out at 8%.

As to AGGCACGGCTTCAGTC (sugars k3 d10 k3, PS), the target mRNA inhibition worked out at 49%.

For the sequence TAAAACCTCATCCCCT (sugars k3 d10 k3, PS), the target mRNA inhibition was -26%.

Take GCCAAAGAGCCCAATT (sugars k3 d10 k3, PS): the target mRNA inhibition was 33%.

Regarding GAAGCACTGGCATTGA (sugars k3 d10 k3, PS), the target mRNA inhibition turned out to be 55%.

In the case of ACGCAATCTTCTGCTG (sugars k3 d10 k3, PS), the target mRNA inhibition was determined as 52%.

Turning to TCCCACTGGGCTTTGT (sugars k3 d10 k3, PS), the target mRNA inhibition came out at 32%.

As to AAACAGCCGCCGGCAC (sugars k3 d10 k3, PS), the target mRNA inhibition was found to be 11%.

Turning to CTTTCACTAAAGTCAA (sugars k3 d10 k3, PS), the target mRNA inhibition was 51%.

Consider CCTCAAAGCTGTGAAA (sugars k3 d10 k3, PS), for which the target mRNA inhibition amounted to 20%.

Consider CCTAAATCACCCTGGT (sugars k3 d10 k3, PS), for which the target mRNA inhibition was determined as 27%.

Turning to TCCTTAATTATGCAGA (sugars k3 d10 k3, PS), the target mRNA inhibition came out at 44%.
